Experimental data as given in patent US20140296216A1, “PYRIMIDO[4,5-D]PYRIMIDINYL COMPOUNDS, PHARMACEUTICAL COMPOSITIONS AND USES THEREOF” (GUANGZHOU INSTITUTE OF BIOMEDICINE AND HEALTH, CHINESE …, priority 2011, published 2014).

Columns and labels:
EGFR T790M kinase = biological target: T1, EGFR T790M kinase (Homo sapiens, UniProt P00533, T790M); assay: In vitro enzymatic activity assay (Z'-LYTE), EGFR T790M; type: biochemical; details: Z'-LYTE FRET peptide assay; read-out: EGFRT790M kinase activity (IC50)
T1 construct: purchased invitrogen PV4803
T1 sequence (P00533 25-1210 T790M): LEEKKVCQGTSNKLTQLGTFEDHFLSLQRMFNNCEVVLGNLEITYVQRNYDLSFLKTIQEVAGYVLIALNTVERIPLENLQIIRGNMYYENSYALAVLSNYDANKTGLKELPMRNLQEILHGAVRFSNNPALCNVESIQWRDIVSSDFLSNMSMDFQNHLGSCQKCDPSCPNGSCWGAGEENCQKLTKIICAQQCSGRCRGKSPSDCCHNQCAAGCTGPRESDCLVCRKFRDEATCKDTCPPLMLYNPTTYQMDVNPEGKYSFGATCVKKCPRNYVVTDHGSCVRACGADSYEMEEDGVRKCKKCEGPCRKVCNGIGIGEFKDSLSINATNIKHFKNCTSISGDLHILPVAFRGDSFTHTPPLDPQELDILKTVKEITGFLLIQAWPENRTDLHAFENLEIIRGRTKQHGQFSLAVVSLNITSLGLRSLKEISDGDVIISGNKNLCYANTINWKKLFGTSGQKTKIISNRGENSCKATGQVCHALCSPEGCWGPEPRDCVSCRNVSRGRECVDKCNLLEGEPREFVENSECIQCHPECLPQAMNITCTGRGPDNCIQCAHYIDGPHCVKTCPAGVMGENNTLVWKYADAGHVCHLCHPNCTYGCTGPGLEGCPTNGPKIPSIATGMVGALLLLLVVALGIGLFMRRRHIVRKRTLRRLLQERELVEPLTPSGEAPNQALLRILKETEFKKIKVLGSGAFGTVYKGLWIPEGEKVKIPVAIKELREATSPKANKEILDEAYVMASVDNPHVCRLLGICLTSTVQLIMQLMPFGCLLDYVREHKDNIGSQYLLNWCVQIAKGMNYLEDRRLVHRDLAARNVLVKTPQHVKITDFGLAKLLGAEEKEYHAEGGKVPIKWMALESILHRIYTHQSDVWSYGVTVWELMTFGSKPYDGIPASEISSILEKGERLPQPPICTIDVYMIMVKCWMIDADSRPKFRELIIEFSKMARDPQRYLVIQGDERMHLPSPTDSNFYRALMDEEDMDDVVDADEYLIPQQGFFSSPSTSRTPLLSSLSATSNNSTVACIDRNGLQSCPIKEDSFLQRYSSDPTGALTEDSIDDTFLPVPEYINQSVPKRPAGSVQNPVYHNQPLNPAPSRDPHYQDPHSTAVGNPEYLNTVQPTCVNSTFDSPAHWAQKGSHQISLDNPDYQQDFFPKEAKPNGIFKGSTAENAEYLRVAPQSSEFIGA
Source text: (§1) In vitro enzymatic activity assay: using Z′-LYTE™ technology (detect fluorescence, coupled-enzyme format, based on the differential sensitivity of phosphorylated and non-phosphorylated peptides to proteolytic cleavage), based on FRET, using Z′ LYTE™ FRET peptide substrate, detect the activity of compounds against enzymatic. […] After one hour, site specific protease which can recognize and cleaves non-phosphorylated FRET-peptide. After another hour, using an excitation wavelength of 400 nm excites, then detect the […] at 445 nm and 520 nm.

[1] = system: A431 (Human epidermal carcinoma, EGFR high expression); assay: Cell proliferation by MTT, A431; type: cell-based; details: A-431, read-out: A431 50% inhibitory concentration (IC50), 72 h
[2] = system: HCC827 (lung cancer cells, EGFR E746-A750 deletion); assay: Cell proliferation by MTT, HCC827; type: cell-based; details: Homo sapiens, HCC827, read-out: HCC827 50% inhibitory concentration (IC50), 72 h
EGFRL858R = EGFRL858R (Homo sapiens, UniProt P00533, L858R); assay: In vitro enzymatic activity assay (Z'-LYTE), EGFR L858R; type: biochemical; details: Z'-LYTE FRET peptide assay; read-out: EGFRL858R kinase activity (IC50)
EGFRL858R, sequence (P00533 25-1210 L858R): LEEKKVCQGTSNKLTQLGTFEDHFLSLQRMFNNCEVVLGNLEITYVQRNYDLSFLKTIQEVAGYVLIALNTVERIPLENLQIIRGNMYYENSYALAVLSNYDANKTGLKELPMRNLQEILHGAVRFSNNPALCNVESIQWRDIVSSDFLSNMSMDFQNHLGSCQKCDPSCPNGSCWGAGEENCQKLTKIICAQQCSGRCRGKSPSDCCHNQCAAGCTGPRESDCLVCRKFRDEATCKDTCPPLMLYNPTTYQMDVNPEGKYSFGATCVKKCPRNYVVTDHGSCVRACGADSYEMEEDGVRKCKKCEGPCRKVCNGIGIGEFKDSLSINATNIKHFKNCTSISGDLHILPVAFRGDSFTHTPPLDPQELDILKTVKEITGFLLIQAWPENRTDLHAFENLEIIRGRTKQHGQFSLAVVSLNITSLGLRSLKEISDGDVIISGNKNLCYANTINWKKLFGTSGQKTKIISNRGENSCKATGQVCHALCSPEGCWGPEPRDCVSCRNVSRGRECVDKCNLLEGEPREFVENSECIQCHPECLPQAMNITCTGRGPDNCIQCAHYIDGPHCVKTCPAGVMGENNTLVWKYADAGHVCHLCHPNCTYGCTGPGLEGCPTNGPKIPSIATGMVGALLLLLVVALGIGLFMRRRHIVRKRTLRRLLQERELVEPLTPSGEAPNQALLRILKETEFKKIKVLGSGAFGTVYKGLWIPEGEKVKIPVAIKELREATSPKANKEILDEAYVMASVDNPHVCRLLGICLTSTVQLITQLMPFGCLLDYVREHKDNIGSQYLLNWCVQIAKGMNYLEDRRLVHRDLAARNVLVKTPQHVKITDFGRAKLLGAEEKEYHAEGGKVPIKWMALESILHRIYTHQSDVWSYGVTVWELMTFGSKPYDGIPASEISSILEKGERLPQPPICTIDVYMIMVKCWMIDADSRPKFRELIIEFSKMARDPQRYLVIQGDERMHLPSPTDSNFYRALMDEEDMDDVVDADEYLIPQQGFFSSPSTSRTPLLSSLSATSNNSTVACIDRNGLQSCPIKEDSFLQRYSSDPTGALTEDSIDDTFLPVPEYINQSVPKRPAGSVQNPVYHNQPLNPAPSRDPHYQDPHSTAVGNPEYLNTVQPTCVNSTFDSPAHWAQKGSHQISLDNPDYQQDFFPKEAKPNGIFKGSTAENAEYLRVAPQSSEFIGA
Source text: as §1

EGFRWT = EGFRWT (Homo sapiens, UniProt P00533); assay: In vitro enzymatic activity assay (Z'-LYTE), wild type EGFR; type: biochemical; details: Z'-LYTE FRET peptide assay; read-out: EGFRWT kinase activity (IC50)
Source text: as §1

EGFR kinase = assay: In vitro kinase assays of FIGS. 1-22 (WT EGFR and EGFR T790M), inhibition at fixed concentration; type: biochemical; details: 1 μM; FIGS. 1-22 (WT EGFR, EGFR T790M)
Method: In vitro enzymatic activity assay: using Z′-LYTE™ technology (detect fluorescence, coupled-enzyme format, based on the differential sensitivity of phosphorylated and non-phosphorylated peptides to proteolytic cleavage), based on FRET, using Z′ LYTE™ FRET peptide substrate, detect the activity of compounds against enzymatic. (invitrogen, Z′-LYTE™ KINASE ASSAY KIT-TYR 2 PEPTIDE, PV3191) EGFR T790M kinase (invitrogen, PV4803) was diluted progressively, then FRET-peptide, ATP and different concentrations of compound are added to the solution. After one hour, site specific protease which can recognize and cleaves non-phosphorylated FRET-peptide. After another hour, using an excitation wavelength of 400 nm excites, then detect the […] at 445 nm and 520 nm.
In the enzymatic activity assay of 7-(substituted amino)-3,4-dihydropyrimido[4,5-d]pyrimidin-(1H)-ones against the EGFR kinase, due to the presence of the irreversible Michael addition reaction with the protein cysteine sites, some compounds show a relatively good inhibitive activity to both the two kinases. […] The R1 of 7-(substituted amino)-3,4-dihydropyrimido[4,5-d]pyrimidin-(1H)-ones plays a key role in the interaction between compounds and protein, especially when R1 is aryl, it can get the best activity. […]

EGFRL861Q = EGFRL861Q (Homo sapiens, UniProt P00533, L861Q); assay: In vitro enzymatic activity assay (Z'-LYTE), EGFR L861Q; type: biochemical; details: Z'-LYTE FRET peptide assay; read-out: EGFRL861Q kinase activity (IC50)
EGFRL861Q, sequence (P00533 25-1210 L861Q): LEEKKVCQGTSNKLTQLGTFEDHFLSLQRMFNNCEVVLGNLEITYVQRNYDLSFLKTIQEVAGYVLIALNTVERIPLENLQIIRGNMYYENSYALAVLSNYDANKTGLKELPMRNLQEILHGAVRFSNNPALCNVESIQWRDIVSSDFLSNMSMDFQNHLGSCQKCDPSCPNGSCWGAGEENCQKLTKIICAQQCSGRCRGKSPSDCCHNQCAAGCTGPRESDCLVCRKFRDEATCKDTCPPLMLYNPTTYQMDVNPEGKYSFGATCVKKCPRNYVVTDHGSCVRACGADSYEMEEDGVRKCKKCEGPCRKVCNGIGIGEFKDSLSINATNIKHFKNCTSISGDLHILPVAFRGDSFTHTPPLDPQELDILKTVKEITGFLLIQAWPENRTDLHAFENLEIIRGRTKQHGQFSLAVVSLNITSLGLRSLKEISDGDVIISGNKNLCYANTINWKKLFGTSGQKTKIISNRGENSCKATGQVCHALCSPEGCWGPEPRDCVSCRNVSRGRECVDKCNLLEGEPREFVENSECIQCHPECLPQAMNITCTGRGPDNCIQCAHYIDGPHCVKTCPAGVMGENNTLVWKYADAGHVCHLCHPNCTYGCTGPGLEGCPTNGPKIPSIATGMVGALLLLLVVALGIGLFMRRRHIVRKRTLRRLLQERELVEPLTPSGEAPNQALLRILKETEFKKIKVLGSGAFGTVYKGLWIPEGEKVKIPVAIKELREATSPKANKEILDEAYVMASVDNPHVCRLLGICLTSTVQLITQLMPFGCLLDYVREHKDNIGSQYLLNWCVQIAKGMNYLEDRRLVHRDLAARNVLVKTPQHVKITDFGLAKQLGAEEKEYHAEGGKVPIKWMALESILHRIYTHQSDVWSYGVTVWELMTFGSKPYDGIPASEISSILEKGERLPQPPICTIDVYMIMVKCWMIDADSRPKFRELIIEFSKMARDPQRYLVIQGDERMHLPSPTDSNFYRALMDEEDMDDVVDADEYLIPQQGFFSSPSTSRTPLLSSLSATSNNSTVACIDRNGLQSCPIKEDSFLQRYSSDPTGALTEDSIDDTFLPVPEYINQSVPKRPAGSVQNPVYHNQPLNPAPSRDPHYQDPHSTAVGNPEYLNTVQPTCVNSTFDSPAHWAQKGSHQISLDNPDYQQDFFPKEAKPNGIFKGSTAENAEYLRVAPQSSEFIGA
Source text: as §1

[3] = system: H1975 (lung cancer cells, EGFR L858R&T790M); assay: Cell proliferation by MTT, H1975; type: cell-based; details: Homo sapiens, NCI-H1975, read-out: H1975 50% inhibitory concentration (IC50), 72 h
EGFRL858R + T790M = EGFRL858R + T790M (Homo sapiens, UniProt P00533, L858R/T790M); assay: In vitro enzymatic activity assay (Z'-LYTE), EGFR L858R + T790M; type: biochemical; details: Z'-LYTE FRET peptide assay; read-out: EGFRL858R + T790M kinase activity (IC50)
EGFRL858R + T790M, sequence (P00533 25-1210 T790M/L858R): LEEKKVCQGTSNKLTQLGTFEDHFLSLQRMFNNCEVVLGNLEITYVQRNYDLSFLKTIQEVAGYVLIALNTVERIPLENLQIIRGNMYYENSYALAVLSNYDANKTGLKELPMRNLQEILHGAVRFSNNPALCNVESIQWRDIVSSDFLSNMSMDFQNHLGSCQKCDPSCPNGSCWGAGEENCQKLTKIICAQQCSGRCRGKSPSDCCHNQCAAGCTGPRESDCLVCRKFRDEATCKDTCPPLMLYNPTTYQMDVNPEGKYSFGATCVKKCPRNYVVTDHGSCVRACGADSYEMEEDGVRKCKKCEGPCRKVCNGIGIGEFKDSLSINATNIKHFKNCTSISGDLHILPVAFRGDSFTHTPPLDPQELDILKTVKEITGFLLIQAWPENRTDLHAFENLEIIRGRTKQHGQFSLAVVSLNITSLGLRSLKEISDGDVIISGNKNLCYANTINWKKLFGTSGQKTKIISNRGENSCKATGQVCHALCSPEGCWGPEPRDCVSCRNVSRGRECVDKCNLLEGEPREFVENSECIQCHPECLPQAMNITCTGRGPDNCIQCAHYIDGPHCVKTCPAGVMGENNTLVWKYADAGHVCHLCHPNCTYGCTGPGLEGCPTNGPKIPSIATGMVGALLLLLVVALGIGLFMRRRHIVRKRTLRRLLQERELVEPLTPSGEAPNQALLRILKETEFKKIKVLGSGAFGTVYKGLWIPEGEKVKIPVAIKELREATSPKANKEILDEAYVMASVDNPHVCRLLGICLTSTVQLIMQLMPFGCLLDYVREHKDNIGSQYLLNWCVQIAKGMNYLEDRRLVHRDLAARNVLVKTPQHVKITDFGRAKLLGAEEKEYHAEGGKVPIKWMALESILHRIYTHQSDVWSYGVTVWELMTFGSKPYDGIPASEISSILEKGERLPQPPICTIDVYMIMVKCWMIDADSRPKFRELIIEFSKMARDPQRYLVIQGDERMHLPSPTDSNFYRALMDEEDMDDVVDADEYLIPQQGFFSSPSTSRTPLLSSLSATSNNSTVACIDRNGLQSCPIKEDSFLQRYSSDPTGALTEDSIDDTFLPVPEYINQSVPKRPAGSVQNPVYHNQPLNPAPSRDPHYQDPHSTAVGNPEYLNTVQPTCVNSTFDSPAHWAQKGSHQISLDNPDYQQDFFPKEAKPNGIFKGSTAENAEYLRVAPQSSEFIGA
Source text: as §1

[4] = system: NCI-H820 (lung cancer cells); assay: Cell proliferation by MTT, NCI-H820; type: cell-based; details: NCI-H820, read-out: NCI-H820 50% inhibitory concentration (IC50), 72 h

Compound | IC50 (EGFR T790M kinase) [µM] | IC50 [1] [µM] | IC50 [2] [µM] | IC50 (EGFRL858R) [µM] | IC50 (EGFRWT) [µM] | inhibitive activity for inhibiting a kinase at a relatively high test concentration (EGFR kinase) | IC50 (EGFRL861Q) [µM] | IC50 [3] [µM] | IC50 (EGFRL858R + T790M) [µM] | IC50 [4] [µM]
COc1cc(N2CCN(C)CC2)ccc1Nc1ncc2c(n1)N(c1cccc(N)c1)C(=O)N(C)C2 [C-EGF33, 1-(3-aminophenyl)-7-(2-methoxy-4-(4-methylpiperazin-1-yl)phenylamino)-3-methyl-3,4-dihydropyrimido[4,5-d]pyrimidin-2(1H)-one] | 1 to 10 | > 30 | 4.89 | 0.1 to 1 | 0.1 to 1 | poor | 1 to 10 | > 20 | 1 to 10 | 
C=CC(=O)Nc1cccc(N2C(=O)N(C)Cc3cnc(Nc4ccc(N5CCCC5)cc4OC)nc32)c1 [C-EGF12, N-(3-(7-(2-methoxy-4-(pyrrolidin-1-yl)phenylamino)-3-methyl-2-oxo-3,4-dihydropyrimido[4,5-d]pyrimidin-1(2H)-yl)phenyl)acrylamide] | 0.1 to 1 | 8.16 | 0.409 | 0.01 to 0.1 | 0.01 to 0.1 |  | ≤ 0.01 | 1.53 | 0.01 to 0.1 | 35.6
C=CC(=O)Nc1cccc(N2C(=O)N(C)Cc3cnc(Nc4ccc(N5CCC(N6CCN(C)CC6)CC5)cc4OC)nc32)c1 [C-EGF14, N-(3-(7-(2-methoxy-4-(4-(4-methylpiperazin-1-yl)piperidin-1-yl)phenylamino)-3-methyl-2-oxo-3,4-dihydropyrimido[4,5-d]pyrimidin-1(2H)-yl)phenyl)acrylamide] | 0.01 to 0.1 | > 100 | 0.188 | ≤ 0.01 | ≤ 0.01 |  | ≤ 0.01 | 1.22 | 0.01 to 0.1 | > 100
C=CC(=O)Nc1cccc(N2C(=O)N(C)Cc3cnc(Nc4ccc(N5CCOCC5)cc4)nc32)c1 [Compound X007, N-(3-(3-methyl-7-(4-morpholinophenylamino)-2-oxo-3,4-dihydropyrimido[4,5-d]pyrimidin-1(2H)-yl)phenyl)acrylamide] | ≤ 0.01 | 3.48 | 0.256 | ≤ 0.01 | ≤ 0.01 |  | ≤ 0.01 | 0.696 | ≤ 0.01 | > 100
C=CC(=O)Nc1cccc(N2C(=O)N(C)Cc3cnc(Nc4ccc(N5CCOCC5)cc4OC)nc32)c1 [C-EGF08, N-(3-(7-(2-methoxy-4-morpholinophenylamino)-3-methyl-2-oxo-3,4-dihydropyrimido[4,5-d]pyrimidin-1(2H)-yl)phenyl)acrylamide] | 0.01 to 0.1 | 21.2 | 0.159 | 0.01 to 0.1 | 0.01 to 0.1 |  | 0.01 to 0.1 | 0.159 | 0.01 to 0.1 | > 100
C=CC(=O)Nc1cccc(N2C(=O)N(C)Cc3cnc(Nc4ccc(OCCN5CCOCC5)cc4OC)nc32)c1 [Compound X008, N-(3-(7-(2-methoxy-4-(2-morpholinoethoxy)phenylamino)-3-methyl-2-oxo-3,4-dihydropyrimido[4,5-d]pyrimidin-1(2H)-yl)phenyl)acrylamide] | 0.01 to 0.1 | 29.9 | 0.179 | ≤ 0.01 | ≤ 0.01 |  | ≤ 0.01 | 1.1 | ≤ 0.01 | > 100
C=CC(=O)Nc1cccc(N2C(=O)N(C(C)C)Cc3cnc(Nc4ccc(N5CCN(C)CC5)cc4OC)nc32)c1 [C-EGF24, N-(3-(3-isopropyl-7-(2-methoxy-4-(4-methylpiperazin-1-yl)phenylamino)-2-oxo-3,4-dihydropyrimido[4,5-d]pyrimidin-1(2H)-yl)phenyl)acrylamide] | ≤ 0.01 | 24.7 | 0.0002 | ≤ 0.01 | ≤ 0.01 |  | ≤ 0.01 | 0.129 | ≤ 0.01 | > 100
C=CC(=O)Nc1cccc(N2C(=O)N(C)Cc3cnc(Nc4ccc(N5CCN(C)CC5)cc4OC(C)C)nc32)c1 [Compound X006, N-(3-(7-(2-isopropoxy-4-(4-methylpiperazin-1-yl)phenylamino)-3-methyl-2-oxo-3,4-dihydropyrimido[4,5-d]pyrimidin-1(2H)-yl)phenyl)acrylamide] | 0.01 to 0.1 | 62.5 | 0.108 | 0.01 to 0.1 | ≤ 0.01 |  | 0.01 to 0.1 | 0.543 | 0.01 to 0.1 | > 100
C=CC(=O)Nc1cccc(N2C(=O)N(C)Cc3cnc(Nc4ccc(N5CCCN(C)CC5)cc4OC)nc32)c1 [C-EGF17, N-(3-(7-(2-methoxy-4-(4-methyl-1,4-diazepan-1-yl)phenylamino)-3-methyl-2-oxo-3,4-dihydropyrimido[4,5-d]pyrimidin-1(2H)-yl)phenyl)acrylamide] | ≤ 0.01 | 11.1 | 0.062 | ≤ 0.01 | ≤ 0.01 |  | ≤ 0.01 | 0.71 | ≤ 0.01 | > 100
C=CC(=O)Nc1cccc(N2C(=O)N(C)Cc3cnc(Nc4ccc(N5CCN(C)CC5)cc4C)nc32)c1 [Compound X010, N-(3-(3-methyl-7-(2-methyl-4-(4-methylpiperazin-1-yl)phenylamino)-2-oxo-3,4-dihydropyrimido[4,5-d]pyrimidin-1(2H)-yl)phenyl)acrylamide] | ≤ 0.01 | 1.45 | 0.053 | ≤ 0.01 | ≤ 0.01 |  | ≤ 0.01 | 0.173 | ≤ 0.01 | 41.5
